Here are results for 6 molecules from US20050288355A1, “Combination therapy wherein a serotonin reuptake inhibitor is used” (priority 2002, published 2005).

Experiment [1] concerns 5-HT levels in rat ventral hippocampus. The experiment in a line: Microdialysis of brain serotonin levels, ventral hippocampus. Format: in vivo. The method, then:
(§1) Male albino rats of a Wistar-derived strain (285-320 g; Harlan, Zeist, The Netherlands) were used for the experiments. Upon surgery, rats were housed individually in plastic cages (35×35×40 cm), and had free access to food and water. Animals were kept on a 12 h light schedule (light on 7:00 a.m.). The experiments are concordant with the declarations of Helsinki and were approved by the animal care committee of the faculty of mathematics and natural science of the University of Groningen.
Microdialysis of brain serotonin levels was performed using home made I-shaped probes, made of polyacrylonitrile/sodium methyl sulfonate copolymer dialysis fiber (i.d. 220 μn, o.d. […], AN 69, Hospal, Italy). Preceding surgery rats were anaesthetised using isoflurane (O2/N2O; 300/300 ml/min). Lidocaine-HCl, 10% (m/v) was used for local anaesthesia. Rats were placed in a stereotaxic frame (Kopf, USA), and probes were inserted into Ventral Hippcampus (V. Hippo, L+4.8 mm, IA: +3.7 mm, V: −8.0 mm) and median prefrontal cortex (PFC, L −0.9 mm; AP: +3.5 mm relative to bregma; V: −6.0 mm (Paxinos and Watson, 1982). After insertion, probes were secured with dental cement.
Rats were allowed to recover for at least 24 h. Probes were perfused with artificial cerebrospinal fluid containing 147 mM NaCl, 3.0 mM KCl, 1.2 mM CaCl2, and 1.2 mM MgCl2, at a flow-rate of 1.5 μl/min (Harvard apparatus, South Natick, Ma., USA). 15 minute microdialysis samples were collected in HPLC vials containing 7.5 μl 0.02 M acetic acid for serotonin analysis.
Twenty-μl microdialysate samples were injected via an autoinjector (CMA/200 refrigerated microsampler, CMA, Sweden) onto a 100×2.0 mm C18 Hypersil 3 μm column (Bester, Amstelveen, the Netherlands) and separated with a mobile phase consisting of 5 g/L di-ammoniumsulfate, 500 mg/L EDTA, 50 mg/L heptane sulphonic acid, 4% methanol v/v, and 30 μl/L of triethylamine, pH 4.65 at a flow of 0.4 ml/min (Shimadzu LC-10 AD). 5-HT was detected amperometrically at a glassy carbon electrode at 500 mV vs Ag/AgCl (Antec Leyden, Leiden, The Netherlands). The detection limit was 0.5 fmol 5-HT per 20 μl sample (signal to noise ratio 3).
Four consecutive microdialysis samples with less then 20% variation were taken as control and set at 100%. Data are presented as percentages of control level (mean±S.E.M.) in time. Statistical analysis was performed using Sigmastat for Windows (SPSS, Jandel Corporation). Treatments were compared versus controls using two way analysis of variance (ANOVA) for repeated measurements, followed by Student Newman Keuls test. Level of significance level was set at p<0.05.

Experiment [2] concerns 5-HT in the raphe nuclei / forebrain. As to conditions: cited from earlier work.
Experiment [3] deals with 5-HT levels in rat prefrontal cortex. The experiment in a line: Microdialysis of brain serotonin levels, prefrontal cortex. Type of experiment: in vivo. The settings on record: PFC; 2 mg/kg s.c. co-administered with citalopram 10 μmol/kg s.c.; P=0.048. The method, then:
as §1
Microdialysis of brain serotonin levels was performed using home made I-shaped probes, made of polyacrylonitrile/sodium methyl sulfonate copolymer dialysis fiber (i.d. 220 μn, o.d. 0.31 μm, AN 69, Hospal, Italy). Preceding surgery rats were anaesthetised using isoflurane (O2/N2O; 300/300 ml/min). Lidocaine-HCl, 10% (m/v) was used for local anaesthesia. […]
Twenty-μl microdialysate samples were injected via an autoinjector (CMA/200 refrigerated microsampler, CMA, Sweden) onto a 100×2.0 mm C18 Hypersil 3 μm column (Bester, Amstelveen, the Netherlands) and separated with a mobile phase consisting of 5 g/L di-ammoniumsulfate, 500 mg/L EDTA, 50 mg/L heptane sulphonic acid, 4% methanol v/v, and 30 μl/L of triethylamine, pH 4.65 at a flow of 0.4 ml/min (Shimadzu LC-10 AD). 5-HT was detected amperometrically at a glassy carbon electrode at 500 mV vs Ag/AgCl (Antec Leyden, Leiden, The Netherlands). […]

Take `NCC(O)(CS(=O)(=O)O)c1ccc(Cl)cc1` (centres unmarked) [2-hydroxysaclofen]: the “effects on 5-HT levels with citalopram” value in experiment [1] (2 mg/kg s.c. simultaneous with citalopram 10 μmol/kg s.c., P=0.046) is “augmented effects on 5-HT levels”.
Take `NCC(CP(=O)(O)O)c1ccc(Cl)cc1` (centres unmarked) [Phaclofen]: the “effect on 5-HT levels when administered by itself” value in experiment [2] (raphe or forebrain) is reported as “devoid of effect”. The “5-HT levels compared to citalopram treatment alone” value in experiment [3] was “enhanced levels of 5-HT”; in experiment [1] (2 mg/kg s.c. co-administered with citalopram 10 μmol/kg s.c., P=0.021, t=75 to t=135), “enhanced levels of 5-HT”. The “effects of citalopram on extracellular 5-HT levels” value in experiment [1] (administered either centrally into the hippocampus or systemically, with citalopram) is “significantly increase”. Besides, the “effect on basal levels of 5-HT” value in experiment [1] (local infusion (50 μM) in ventral hippocampus, P=0.26) is listed as “did not have any effect”. Moreover, the “5-HT levels after systemic citalopram during local administration” value in experiment [1] (local phaclofen 50 μM, citalopram 10 μmol/kg s.c., P=0.0068, significant from t=75 to 150 min) is “augmented levels of 5-HT”.
As to `NCC(CC(=O)O)c1ccc(Cl)cc1` (centres unmarked) [baclofen], the “5-HT in the forebrain” value in experiment [2] (forebrain) was “reduction”. Moreover, the “5-HT in the raphe” value in experiment [2] (raphe) is on record as “decrease”.
As to `NCCCP(=O)(O)CC1CCCCC1` [CGP 46381], the “response on 5-HT levels with citalopram” value is “augmented response” in experiment [1] (0.5 mg/kg co-administered with citalopram 10 μmol/kg, treatment p=0.04) and “augmented response” in experiment [1] (2 mg/kg co-administered with citalopram 10 μmol/kg, treatment p=0.10, treatment vs. time 0.001). In addition, in experiment [1] (10 mg/kg s.c., without citalopram), the “effect on 5-HT levels, given alone” value is “did not show any effect”.
Take `NCc1cc(=O)[nH]o1` [muscimol]: the “5-HT cell activity & 5-HT release” value in experiment [2] (raphe nuclei) is “reduced”.
As to `CN1CCc2cc3c(cc2[C@H]1[C@@H]1OC(=O)c2c1ccc1c2OCO1)OCO3` [bicuculline, (+)-Bicuculline], the “increase of serotonin levels” value in experiment [1] (local administration of 50 μM in ventral hippocampus, significant from t=45 to 90 min) was “about 150%”.
